Measurements published in patent US9499550B2 (BRISTOL-MYERS SQUIBB COMPANY, priority 2012, dated 2016).

Assays:
[1] = system: HCV genotype 1a (H77 strain) replicon in HUH-7 cells; assay: HCV replicon luciferase reporter assay, genotype 1a; type: cell-based; conditions: Hepatitis C virus, Huh-7, 72 h, HCV genotype 1a replicon luciferase assay, 3 days incubation, range class, read-out: LE_1a (EC50, range)
Procedure, shortened: (§1)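 Replicon inhibition for both genotypes was measured as Renilla luciferase signal (EnduRen, 7.5 μM final, 2 h) after 3-day, 37° C exposure of replicon-bearing HUH-7 cells in 4% FCS DMEM, 0.5% DMSO. The 1b construct carries S1179I; the 1a H77 construct carries P1496L and S2204I. Twenty-point, 3-fold dilutions were fitted four-parametrically for EC50, and CC50 was taken from multiplexed Cell Titer-Blue.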

[2] = system: HCV genotype 1b (Con1) replicon in HUH-7 cells; assay: HCV replicon luciferase reporter assay, genotype 1b; type: cell-based; conditions: Hepatitis C virus, Huh-7, 72 h, HCV genotype 1b replicon luciferase assay, 3 days incubation, range class, read-out: LE_1b (EC50, range)
Procedure, shortened: as §1

Compound: C[C@H]1CC/C=C\[C@@H]2C[C@@]2(C(=O)NS(=O)(=O)C2CC2)NC(=O)[C@@H]2C[C@@H](Oc3nc(OCC(F)F)cc4c(Cl)cccc34)CN2C(=O)[C@@H](NC(=O)OC(C)(C)C)[C@H](C)C1 [Compound 1075, tert-butyl ((2R,6S,7R,9S,13aS,14aR,16aS,Z)-2-((5-chloro-3-(2,2-difluoroethoxy)isoquinolin-1-yl)oxy)-14a-((cyclopropylsulfonyl)carbamoyl)-7,9-dimethyl-5,16-dioxo-1,2,3,5,6,7,8,9,10,11,13a,14,14a,15,16,16a-hexadecahydrocyclopropa[e]pyrrolo[1,2-a][1,4]diazacyclopentadecin-6-yl)carbamate]
- EC50 [1]: < 5.46 nM
- EC50 [2]: < 5.46 nM

Compound: C[C@@H]1CC/C=C\[C@@H]2C[C@@]2(C(=O)NS(=O)(=O)C2CC2)NC(=O)[C@@H]2C[C@@H](Oc3nc(OCC(F)F)cc4c(Cl)cccc34)CN2C(=O)[C@@H](NC(=O)OC(C)(C)C)[C@H](C)C1 [Compound 1076, tert-butyl ((2R,6S,7R,9R,13aS,14aR,16aS,Z)-2-((5-chloro-3-(2,2-difluoroethoxyl)isoquinolin-1-yl)oxy)-14a-((cyclopropylsulfonyl)carbamoyl)-7,9-dimethyl-5,16-dioxo-1,2,3,5,6,7,8,9,10,11,13a,14,14a,15,16,16a-hexadecahydrocyclopropa[e]pyrrolo[1,2-a][1,4]diazacyclopentadecin-6-yl)carbamate]
- EC50 [1]: < 5.46 nM
- EC50 [2]: < 5.46 nM

Compound: CCCOc1cc2c(Cl)cccc2c(O[C@@H]2C[C@H]3C(=O)N[C@]4(C(=O)NS(=O)(=O)C5(C)CC5)C[C@H]4/C=C\CC[C@H](C)C[C@@H](C)[C@H](NC(=O)OC(C)(C)C(F)(F)F)C(=O)N3C2)n1 [Compound 1077, 1,1,1-trifluoro-2-methylpropan-2-yl((2R,6S,7R,9S,13aS,14aR,16aS,Z)-2-((5-chloro-3-propoxyisoquinolin-1-yl)oxy)-7,9-dimethyl-14a-(((1-methylcyclopropyl)sulfonyl)carbamoyl)-5,16-dioxo-1,2,3,5,6,7,8,9,10,11,13a,14,14a,15,16,16a-hexadecahydrocyclopropa[e]pyrrolo[1,2-a][1,4]diazacyclopentadecin-6-yl)carbamate]
- EC50 [1]: 4.82 to 103 nM
- EC50 [2]: < 5.46 nM

Compound: CCCOc1cc2c(Cl)cccc2c(O[C@@H]2C[C@H]3C(=O)N[C@]4(C(=O)NS(=O)(=O)C5(C)CC5)C[C@H]4/C=C\CC[C@@H](C)C[C@@H](C)[C@H](NC(=O)OC(C)(C)C(F)(F)F)C(=O)N3C2)n1 [Compound 1078, 1,1,1-trifluoro-2-methylpropan-2-yl((2R,6S,7R,9R,13aS,14aR,16aS,Z)-2-((5-chloro-3-propoxyisoquinolin-1-yl)oxy)-7,9-dimethyl-14a-(((1-methylcyclopropyl)sulfonyl)carbamoyl)-5,16-dioxo-1,2,3,5,6,7,8,9,10,11,13a,14,14a,15,16,16a-hexadecahydrocyclopropa[e]pyrrolo[1,2-a][1,4]diazacyclopentadecin-6-yl)carbamate]
- EC50 [1]: < 5.46 nM
- EC50 [2]: < 5.46 nM

Compound: CCCOc1cc2c(Cl)cccc2c(O[C@@H]2C[C@H]3C(=O)N[C@]4(C(=O)NS(=O)(=O)C5(C)CC5)C[C@H]4/C=C\CC[C@H](C)C[C@@H](C)[C@H](NC(=O)O[C@H](C)C(F)(F)F)C(=O)N3C2)n1 [Compound 1079, (R)-1,1,1-trifluoropropan-2-yl ((2R,6S,7R,9S,13aS,14aR,16aS,Z)-2-((5-chloro-3-propoxyisoquinolin-1-yl)oxy)-7,9-dimethyl-14a-(((1-methylcyclopropyl)sulfonyl)carbamoyl)-5,16-dioxo-1,2,3,5,6,7,8,9,10,11,13a,14,14a,15,16,16a-hexadecahydrocyclopropa[e]pyrrolo[1,2-a][1,4]diazacyclopentadecin-6-yl)carbamate]
- EC50 [1]: 4.82 to 103 nM
- EC50 [2]: < 5.46 nM

Compound: CCCOc1cc2c(Cl)cccc2c(O[C@@H]2C[C@H]3C(=O)N[C@]4(C(=O)NS(=O)(=O)C5(C)CC5)C[C@H]4/C=C\CC[C@@H](C)C[C@@H](C)[C@H](NC(=O)O[C@H](C)C(F)(F)F)C(=O)N3C2)n1 [Compound 1080, (R)-1,1,1-trifluoropropan-2-yl ((2R,6S,7R,9R,13aS,14aR,16aS,Z)-2-((5-chloro-3-propoxyisoquinolin-1-yl)oxy)-7,9-dimethyl-14a-(((1-methylcyclopropyl)sulfonyl)carbamoyl)-5,16-dioxo-1,2,3,5,6,7,8,9,10,11,13a,14,14a,15,16,16a-hexadecahydrocyclopropa[e]pyrrolo[1,2-a][1,4]diazacyclopentadecin-6-yl)carbamate]
- EC50 [1]: < 5.46 nM
- EC50 [2]: < 5.46 nM

Compound: CCCOc1cc2c(Cl)cccc2c(O[C@@H]2C[C@H]3C(=O)N[C@]4(C(=O)NS(=O)(=O)C5CC5)C[C@H]4/C=C\CC[C@H](C)C[C@@H](C)[C@H](NC(=O)O[C@H](C)C(F)(F)F)C(=O)N3C2)n1 [Compound 1081, (R)-1,1,1-trifluoropropan-2-yl ((2R,6S,7R,9S,13aS,14aR,16aS,Z)-2-((5-chloro-3-propoxyisoquinolin-1-yl)oxy)-14a-((cyclopropylsulfonyl)carbamoyl)-7,9-dimethyl-5,16-dioxo-1,2,3,5,6,7,8,9,10,11,13a,14,14a,15,16,16a-hexadecahydrocyclopropa[e]pyrrolo[1,2-a][1,4]diazacyclopentadecin-6-yl)carbamate]
- EC50 [1]: 4.82 to 103 nM
- EC50 [2]: < 5.46 nM

Compound: CCCOc1cc2c(Cl)cccc2c(O[C@@H]2C[C@H]3C(=O)N[C@]4(C(=O)NS(=O)(=O)C5CC5)C[C@H]4/C=C\CC[C@@H](C)C[C@@H](C)[C@H](NC(=O)O[C@H](C)C(F)(F)F)C(=O)N3C2)n1 [Compound 1082, (R)-1,1,1-trifluoropropan-2-yl ((2R,6S,7R,9R,13aS,14aR,16aS,Z)-2-((5-chloro-3-propoxyisoquinolin-1-yl)oxy)-14a-((cyclopropylsulfonyl)carbamoyl)-7,9-dimethyl-5,16-dioxo-1,2,3,5,6,7,8,9,10,11,13a,14,14a,15,16,16a-hexadecahydrocyclopropa[e]pyrrolo[1,2-a][1,4]diazacyclopentadecin-6-yl)carbamate]
- EC50 [1]: < 5.46 nM
- EC50 [2]: < 5.46 nM

Compound: CCCOc1cc2c(Cl)cccc2c(O[C@@H]2C[C@H]3C(=O)N[C@]4(C(=O)NS(=O)(=O)C5CC5)C[C@H]4/C=C\CC[C@H](C)C[C@@H](C)[C@H](NC(=O)OC(C)(C)C(F)(F)F)C(=O)N3C2)n1 [Compound 1083, 1,1,1-trifluoro-2-methylpropan-2-yl((2R,6S,7R,9S,13aS,14aR,16aS,Z)-2-((5-chloro-3-propoxyisoquinolin-1-yl)oxy)-14a-((cyclopropylsulfonyl)carbamoyl)-7,9-dimethyl-5,16-dioxo-1,2,3,5,6,7,8,9,10,11,13a,14,14a,15,16,16a-hexadecahydrocyclopropa[e]pyrrolo[1,2-a][1,4]diazacyclopentadecin-6-yl)carbamate]
- EC50 [1]: 4.82 to 103 nM
- EC50 [2]: < 5.46 nM

Compound: CCCOc1cc2c(Cl)cccc2c(O[C@@H]2C[C@H]3C(=O)N[C@]4(C(=O)NS(=O)(=O)C5CC5)C[C@H]4/C=C\CC[C@@H](C)C[C@@H](C)[C@H](NC(=O)OC(C)(C)C(F)(F)F)C(=O)N3C2)n1 [Compound 1084, 1,1,1-trifluoro-2-methylpropan-2-yl((2R,6S,7R,9R,13aS,14aR,16aS,Z)-2-((5-chloro-3-propoxyisoquinolin-1-yl)oxy)-14a-((cyclopropylsulfonyl)carbamoyl)-7,9-dimethyl-5,16-dioxo-1,2,3,5,6,7,8,9,10,11,13a,14,14a,15,16,16a-hexadecahydrocyclopropa[e]pyrrolo[1,2-a][1,4]diazacyclopentadecin-6-yl)carbamate]
- EC50 [1]: < 5.46 nM
- EC50 [2]: < 5.46 nM

Compound: CCCOc1cc2c(Cl)cccc2c(O[C@@H]2C[C@H]3C(=O)N[C@]4(C(=O)NS(=O)(=O)C5CC5)C[C@H]4/C=C\CC[C@H](C)C[C@@H](C)[C@H](NC(=O)OC4C[C@@H]5C[C@H]5C4)C(=O)N3C2)n1 [Compound 1085, (1S,5S)-bicyclo[3.1.0]hexan-3-yl((2R,6S,7R,9S,13aS,14aR,16aS,Z)-2-((5-chloro-3-propoxyisoquinolin-1-yl)oxy)-14a-((cyclopropylsulfonyl)carbamoyl)-7,9-dimethyl-5,16-dioxo-1,2,3,5,6,7,8,9,10,11,13a,14,14a,15,16,16a-hexadecahydrocyclopropa[e]pyrrolo[1,2-a][1,4]diazacyclopentadecin-6-yl)carbamate]
- EC50 [1]: < 5.46 nM
- EC50 [2]: < 5.46 nM

Compound: CCCOc1cc2c(Cl)cccc2c(O[C@@H]2C[C@H]3C(=O)N[C@]4(C(=O)NS(=O)(=O)C5CC5)C[C@H]4/C=C\CC[C@@H](C)C[C@@H](C)[C@H](NC(=O)OC4C[C@@H]5C[C@H]5C4)C(=O)N3C2)n1 [Compound 1086, (1S,5S)-bicyclo[3.1.0]hexan-3-yl((2R,6S,7R,9R,13aS,14aR,16aS,Z)-2-((5-chloro-3-propoxyisoquinolin-1-yl)oxy)-14a-((cyclopropylsulfonyl)carbamoyl)-7,9-dimethyl-5,16-dioxo-1,2,3,5,6,7,8,9,10,11,13a,14,14a,15,16,16a-hexadecahydrocyclopropa[e]pyrrolo[1,2-a][1,4]diazacyclopentadecin-6-yl)carbamate]
- EC50 [1]: < 5.46 nM
- EC50 [2]: < 5.46 nM

Compound: CCCOc1cc2c(Cl)cccc2c(O[C@@H]2C[C@H]3C(=O)N[C@]4(C(=O)NS(=O)(=O)C5(C)CC5)C[C@H]4/C=C\CC[C@H](C)C[C@@H](C)[C@H](NC(=O)OC4C[C@@H]5C[C@H]5C4)C(=O)N3C2)n1 [Compound 1087, (1S,5S)-bicyclo[3.1.0]hexan-3-yl((2R,6S,7R,9S,13aS,14aR,16aS,Z)-2-((5-chloro-3-propoxyisoquinolin-1-yl)oxy)-7,9-dimethyl-14a-(((1-methylcyclopropyl)sulfonyl)carbamoyl)-5,16-dioxo-1,2,3,5,6,7,8,9,10,11,13a,14,14a,15,16,16a-hexadecahydrocyclopropa[e]pyrrolo[1,2-a][1,4]diazacyclopentadecin-6-yl)carbamate]
- EC50 [1]: 4.82 to 103 nM
- EC50 [2]: < 5.46 nM
